# Like-named read-outs stand apart in the source and are kept apart here.
# Assays:
# [1] = biological target: T1, 5-HT3 receptor (Cavia porcellus, UniProt O70212); test: Test for 5-HT3 receptor activating action and antagonism, guinea pig ileum longitudinal muscle contraction; type: cell-based; settings: for EC50: negative logarithm of molar concentration giving 50% maximum contraction, read-out: Activating action pD2 (converted); for Activating action i.a.: ratio of maximum contraction by compound relative to maximum contraction with 10 μM 5-HT (defined as 1); for inhibition at 10 µM: inhibitory ratio of contraction by 10 μM 5-HT in sample treated beforehand with 10 μM compound, guinea pig ileum longitudinal muscle
# T1 construct: From ileum of Hartley male guinea pigs (500 g to 800 g) longitudinal muscle samples of about 20 mm were prepared; from tissue; host or cells: guinea pig ileum longitudinal muscle
# T1 sequence (O70212 20-490): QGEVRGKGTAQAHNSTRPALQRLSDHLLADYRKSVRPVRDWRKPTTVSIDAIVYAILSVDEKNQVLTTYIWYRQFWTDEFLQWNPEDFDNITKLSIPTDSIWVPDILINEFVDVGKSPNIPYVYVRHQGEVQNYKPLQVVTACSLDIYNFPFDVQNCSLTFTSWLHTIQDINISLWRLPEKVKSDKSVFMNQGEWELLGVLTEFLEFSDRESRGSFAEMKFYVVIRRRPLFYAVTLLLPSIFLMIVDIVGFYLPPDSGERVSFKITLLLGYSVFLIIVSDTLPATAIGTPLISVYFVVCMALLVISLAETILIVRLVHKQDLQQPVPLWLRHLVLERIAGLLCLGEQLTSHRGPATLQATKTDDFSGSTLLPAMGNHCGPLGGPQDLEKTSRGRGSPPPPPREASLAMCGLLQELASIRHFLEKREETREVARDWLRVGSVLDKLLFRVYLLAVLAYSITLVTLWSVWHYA
# Experimental: From ileum of Hartley male guinea pigs (500 g to 800 g) longitudinal muscle samples of about 20 mm were prepared. The samples were suspended at a resting tension of about 0.5 g in Magnus tubes, and isometric contraction reaction was measured. The samples were treated beforehand twice with 0.3 μM of 5-HT for 1 hour to desensitize the 5-HT4 receptors, and then given with 5-HT at a concentration of 0.1 to 30 μM to examine dose-dependent contraction reaction via the 5-HT3 receptors. […] The index of the 5-HT3 receptor activating action, i.a., is represented as a ratio of the maximum reaction obtained by each compound relative to the maximum contraction reaction obtained with 10 μM of 5-HT, which is defined to be 1. The index of strength of binding with the 5-HT3 receptor, pD2, is represented with a negative logarithmic value of a concentration (molar concentration) that gave 50% maximum contraction reaction for each compound. As for the antagonistic activity of each compound against the 5-HT3 receptor, inhibitory ratio was calculated, which represents a ratio of contraction obtained by applying 10 μM of 5-HT to a sample treated beforehand with 10 μM of each compound relative to the contraction obtained by applying 10 μM of 5-HT to an untreated sample.
# [2] = system: large bowel transportation ability of normal mice; test: Effect on large bowel transportation ability of normal mice (glass bead excretion); type: in vivo, mouse; settings: ddY male mice, bead inserted after 30 minutes
# Experimental: G. et al. [Drug Dev. Res., 9, 241-247, (1986)] was determined as follows. Each test compound was orally administered to 5- to 7-week old ddY male mice starved for about 4 hours. […] After the insertion of the glass bead, time (second) from the insertion to excretion of the bead from the anus was measured, and the time was used as an index of large bowel transportation ability. The test was performed by using groups of mice each consisting of 9 to 11 mice, and all of the procedures were performed under no anesthesia.
# [3] = system: rat diarrhea under restriction stress; test: Inhibitory action for rat diarrhea under restriction stress; type: in vivo; settings: oral, 30 min before restraint, male Wistar rats, 3 hours, nonlinear least square method
# Experimental: L. Williams et al. [GASTROENTEROLOGY, 94, 611–621 (1988)] was determined as follows, and the results were analyzed by the nonlinear least square method. 8-Week old male Wistar rats were starved from the evening of the day before the test. Each test compound was orally administered to the rats. After 30 minutes, the rats were constrained by binding of their fore-limbs and hind-limbs with wires. The rats were left in individual gages on white sheets under luminescent lamps for 3 hours. […] The test was performed with groups of rats each consisting of 8 rats.
# [4] = Metabolic activity in human liver, in vitro system with S9 fraction; type: in vitro ADME; settings: 50 μmol/L test compound, 1 mg/mL human liver S9, NADPH production system, 37 °C, 15 minutes
# Experimental: The test was performed in an in vitro system utilizing human liver S9 fraction in the presence of an NADPH production system described below. A reaction mixture of a total volume of 125 μL containing components at given final concentrations was prepared (50 μmol/L of test compound, 6 mmol/L of MgCl2.6H2O, 1 mmol/L of β-NADP^+, 10 mmol/L of glucose-6-phosphate (G-6-P), 0.7 U/mL of G-6-P dehydrogenase, 100 mmol/L of potassium phosphate (pH 7.4), 0.1 mmol/L of EDTANa2, and 1 mg/mL of human liver S9), and incubated at 37 C.° for 15 minutes. The reaction was stopped by the addition of 125 μL of N,N-dimethylformamide containing a substance for internal standard. The reaction mixture was centrifuged (2,000×g, 10 minutes), and the supernatant was subjected to HPLC analysis to determine the concentration of unchanged substance. Consumed amount was calculated from the concentration of unchanged substance, and the metabolic rate was represented as activity per unit amount of protein.
# [5] = Reverse mutation test
# Experimental: A reverse mutagenicity test was performed using the compound of Example 1 (b) of the present specification, hydrochloride of 5,7-dimethyl-2-(1-piperazinyl)benzoxazole (C), hydrochloride of 5-chloro-7-methyl-2-(4-methyl-1-piperazinyl)benzoxazole (D), and hydrochloride of 5-chloro-7-methyl-2-(4-methyl-1-homopiperazinyl) benzoxazole (E) (compounds disclosed in Japanese Patent Publication (KOKAI) No. 10-29987/1998), and the compound described in Reference Example 4 of the present specification, i.e., hydrochloride of 5-chloro-7-methyl-2-(1-piperazinyl) benzoxazole (F) according to the method of T. Matsushima et al. (Noropoth K. H., Springer, Berlin-Heidelberg-New York, “Short-Term Test Systems For Detecting Carcinogens”, pp. 273–285, 1980) referred by the guideline 471 of ORGANIZATION FOR ECONOMIC CO-OPERATION AND DEVELOPMENT.
# [6] = method of Matsushima et al., OECD guideline 471
Structure (SMILES),EC50 [1],Activating action i.a. [1],inhibition at 10 µM [1],other results
"c1ccc2oc(N3CCCNCC3)nc2c1 [A, 2-(1-homopiperazinyl)benzoxazole, reference compound]",1700 nM,0.32,,
"Cc1cc(C)c2oc(N3CCN(C)CC3)nc2c1 [B, 5,7-dimethyl-2-(4-methyl-1-piperazinyl) benzoxazole, reference compound]",479 nM,0.62,,
"Cc1cc(C)c2oc(N3CCNCC3)nc2c1 [C, 5,7-dimethyl-2-(1-piperazinyl)benzoxazole, reference compound]",70.8 nM,0.12,91%,
"Cc1cc(Cl)cc2nc(N3CCN(C)CC3)oc12 [D, 5-chloro-7-methyl-2-(4-methyl-1-piperazinyl)benzoxazole, reference compound]",162 nM,0.27,94%,
"Cc1cc(Cl)cc2nc(N3CCCN(C)CC3)oc12 [E, 5-chloro-7-methyl-2-(4-methyl-1-homopiperazinyl) benzoxazole, reference compound]",21.4 nM,0.17,98%,
"Cc1cc(Cl)cc2nc(N3CCCNCC3)oc12 [Example 1 (a), 5-Chloro-2-(1-homopiperazinyl)-7-methylbenzoxazole]",33.1 nM,0.12,95%,
"COc1cc(Cl)cc2nc(N3CCCNCC3)oc12 [Example 2, 5-Chloro-2-(1-homopiperazinyl)-7-methoxybenzoxazole]",295 nM,0.36,88%,
"Cc1cc2oc(N3CCCNCC3)nc2cc1Cl [Example 3, 5-Chloro-2-(1-homopiperazinyl)-6-methylbenzoxazole]",191 nM,0.08,88%,
"CCc1cc(Cl)cc2nc(N3CCCNCC3)oc12 [Example 4, 5-Chloro-7-ethyl-2-(1-homopiperazinyl) benzoxazole]",17.8 nM,,89%,
"CC(=O)Nc1cc(Cl)cc2nc(N3CCCNCC3)oc12 [Example 6, 7-Acetamino-5-chloro-2-(1-homopiperazinyl)benzoxazole]",3980 nM,0.35,90%,
"CC(C)(C)OC(=O)Nc1cc(Cl)cc2nc(N3CCCNCC3)oc12 [Example 7, 7-(tert-Butyloxycarbonylamino)-5-chloro-2-(1-homopiperazinyl)benzoxazole]",2000 nM,0.31,83%,
"Cl.Nc1cc(Cl)cc2nc(N3CCCNCC3)oc12 [Example 8, 7-Amino-5-chloro-2-(1-homopiperazinyl) benzoxazole hydrochloride]",437 nM,0.55,83%,
"Clc1cc(Cl)c2oc(N3CCCNCC3)nc2c1 [Example 9, 5,7-Dichloro-2-(1-homopiperazinyl) benzoxazole]",56.2 nM,0.13,97%,
"Cc1c(Cl)cc2nc(N3CCCNCC3)oc2c1Cl [Example 10, 5,7-Dichloro-2-(1-homopiperazinyl)-6-methylbenzoxazole]",56.2 nM,0.09,96%,
"Cc1c(Cl)cc2nc(N3CCCNCC3)oc2c1C [Example 11, 5-Chloro-2-(1-homopiperazinyl)-6,7-dimethylbenzoxazole]",35.5 nM,0.14,89%,
"Clc1cc(NCc2ccccc2)c2oc(N3CCCNCC3)nc2c1 [Example 12, 7-(Benzylamino)-5-chloro-2-(1-homopiperazinyl) benzoxazole]",191 nM,0.05,88%,
"CS(=O)(=O)Nc1cc(Cl)cc2nc(N3CCCNCC3)oc12.Cl [Example 14, 5-Chloro-7-methanesulfonylamino-2-(1-homopiperazinyl) benzoxazole hydrochloride]",3390 nM,0.13,46%,
"CC(C)C(=O)Nc1cc(Cl)cc2nc(N3CCCNCC3)oc12.Cl [Example 16, 5-Chloro-7-isobutyrylamino-2-(1-homopiperazinyl) benzoxazole hydrochloride]",5620 nM,0.10,15%,
"Cc1cc(Cl)cc2nc(N3CCNCC3)oc12 [F, 5-chloro-7-methyl-2-(1-piperazinyl)benzoxazole, reference compound]",27.5 nM,0.14,90%,
"CN1C2CCCC1CC(NC(=O)c1nn(C)c3ccccc13)C2 (stereo not drawn) [G, Granisetron]",,,,time from insertion to excretion of glass bead ([2]; dose 3 mg/kg oral): 206.44 s; time from insertion to excretion of glass bead ([2]; dose 10 mg/kg oral): 258.47 s; time from insertion to excretion of glass bead ([2]; dose 30 mg/kg oral): 475.93 s; ED50 ([3]; Rattus norvegicus): 0.025 mg/kg
"Cc1cc(Cl)cc2nc(N3CCN(C)CC3)oc12.Cl [Hydrochloride of D, hydrochloride of 5-chloro-7-methyl-2-(4-methyl-1-piperazinyl) benzoxazole]",,,,"Metabolic activity [4]: 0.87 nmol/min/mg protein; reverse mutagenicity [5, 6]: negative"
"Cc1cc(Cl)cc2nc(N3CCCN(C)CC3)oc12.Cl [Hydrochloride of E, hydrochloride of 5-chloro-7-methyl-2-(4-methyl-1-homopiperazinyl)benzoxazole]",,,,reverse mutagenicity [5]: negative; time from insertion to excretion of glass bead ([2]; dose 3 mg/kg oral): 271.91 s; time from insertion to excretion of glass bead ([2]; dose 10 mg/kg oral): 318.95 s; time from insertion to excretion of glass bead ([2]; dose 30 mg/kg oral): 248.56 s; ED50 value [3]: 0.0041 mg/kg
"Cc1cc(Cl)cc2nc(N3CCNCC3)oc12.Cl [hydrochloride of Compound F, hydrochloride of 5-chloro-7-methyl-2-(1-piperazinyl) benzoxazole]",,,,"reverse mutagenicity [5, 6]: positive"

# Reference: patent US7045516B1, “Benzoxazole derivatives and drugs containing the same as the active ingredient” (Koichi Shudo, priority 1998, dated 2006)
